Consider eight compounds from patent US7968554B2, “Pyrazolo[3,4-d]pyrimidine derivatives” (Hoffman-La Roche Inc., priority 2007, dated 2011).

In this test the target is T1, b-Raf V600E (Homo sapiens, UniProt P15056, V600E).
T1 construct: recombinant human b-Raf residues 416-end containing a V600E mutation; purchased Upstate 14-5M; host or cells: baculovirus, Sf21 insect cells
T1 sequence (P15056 416-766 V600E): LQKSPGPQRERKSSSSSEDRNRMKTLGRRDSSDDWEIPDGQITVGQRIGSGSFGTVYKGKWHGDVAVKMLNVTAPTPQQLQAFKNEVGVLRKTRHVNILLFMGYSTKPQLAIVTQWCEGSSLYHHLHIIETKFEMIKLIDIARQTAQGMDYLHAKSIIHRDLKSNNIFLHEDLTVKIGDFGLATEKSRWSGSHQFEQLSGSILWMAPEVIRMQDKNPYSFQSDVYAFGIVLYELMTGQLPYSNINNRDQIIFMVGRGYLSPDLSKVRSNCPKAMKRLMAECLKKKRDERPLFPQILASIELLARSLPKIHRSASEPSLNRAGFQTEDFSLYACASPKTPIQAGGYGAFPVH
Description: b-Raf V600E mutant HTRF assay with 6H-MEK as substrate (dose response). Type of test: biochemical. The settings on record: kinase enzyme inhibition, 6H-MEK substrate, read-out: bRaf(V600E) IC50. Here is the method: Kinase Enzyme Inhibition Assay (IC50)
• Enzyme: recombinant human b-Raf residues 416-end with N-terminal GST-tag from Upstate; (expressed by baculovirus in Sf21 insect cells), 0.26 mg/mL (3.87 μM assuming a molecular weight of 67.2 kD) Cat. #14-530M, Lot #25502AU, stored at −80° C. • Substrate: WT full-length 6H-MEK, 4.94 mg/mL (154.4 μM assuming a MW of 32 kD) stored at −15° C. • Antibodies: Rabbit (α-P-(Ser 217/221)-MEK-1/2 Ab (from Cell Signaling, Cat. #9121B, Lot 14); Eu-(α-rabbit IgG (from Wallac, Cat. #AD0083, Lot 318663, 710 ug/mL, 4.4 μM); (α-6H-SureLight-APC (from Martek, Cat. #AD0059H, Lot E012AB01, 3.03 μM). • Reader: Envision from PerkinElmer, HTRF reading mode with 412 mirror • Assay Plate: Matrix all-black polypropylene plates (Cat. #4344) • Others: Weidman 384 polypropylene plates (REMP) for compound plate. Assay Procedure: • (1) Prepare Kinase Assay Buffer (KAB): 50 mM HEPES (HyClone) pH7, 10 mM MgCl2, 1 mM DTT, 0.1 mM […], and 0.3 mg/ml BSA. • (2) Prepare 6H-MEK (150 nM) in KAB. Add 12 μL/well to the assay plate. • (3) Prepare ATP (66 μM) in KAB. • (4) Dilute compounds to 2.4 mM and any positive controls to 480 μM in DMSO. Perform 10-point 3× dilution in DMSO. Withdraw 2.5 μL/well of DMSO solution and add to 27.5 μL/well ATP solution in (3). • (5) Mix, then add 6 μL/well of solution in (4) to the assay plate for a DMSO concentration of 2.1% during MEK phosphorylation. • (6) Prepare b-Raf WT (100 μM) in KAB. • (7) Add 6 μL/well of KAB in columns 1-2 and 6 μL/well of b-Raf WT in columns 3-24. • (8) Incubate at 37° C. for 30 min. • (9) Prepare rabbit (α-P-(Ser 217/221 )-MEK-1/2 Ab (1:200 from stock) in AB1: 50 mM HEPES pH7, 0.2 mg/ml BSA, and 43 mM EDTA. • (10) To stop reaction, add 6 μL/well of solution from (9) to the assay plate and incubate at 37° C. for 30 min. • (11) Prepare Eu-(α-rabbit IgG (9 nM) and (α-6H-SureLight-APC (180 nM) in AB2: 50 mM HEPES pH7 and 0.2 mg/mL BSA. • (12) Add 6 μL/well of solution from (11) to the assay plate. • (13) For determining the spectrum cross talk factor, prepare 2 samples following steps (1) to (10). For the blank sample, add 6 μL/well of AB2. For the cross talk factor sample, add 6 μL/well of Eu-anti rabbit IgG (9 nM). • (14) Incubate at room temperature for 1.5 hours. • (15) Read HTRF signals at 615 nm and 665 nm on the Envision. Normalize HTRF signals after spectrum cross-talk correction. b-Raf V600E Mutant HTRF Assay With 6H-MEK as Substrate (Dose Response) Assay Principle:
The assay utilizes 6H-MEK as the substrate. Upon b-Raf V600E phosphorylation, phosphorylated 6H-MEK is detected with rabbit anti-phospho-MEK1/2, Eu-labeled anti-rabbit, and APC-labeled anti-6H antibodies.
Reagents and Instruments:
• Enzyme: recombinant human b-Raf residues 416-end containing a V600E mutation with N-terminal GST-tag from Upstate; (expressed by baculovirus in Sf21 insect cells), 0.26 mg/mL ([…] assuming a molecular weight of 67.3 kD) Cat. #14-5M, Lot #25633AU, stored at −80° C. • Substrate: WT full-length 6H-MEK, 4.94 mg/mL (154.4 μM assuming a MW of 32 kD) stored at −15° C. • Antibodies: Rabbit (α-P-(Ser 217/221)-MEK-1/2 Ab (from Cell Signaling, Cat. #9121B, Lot 14); Eu-(α-rabbit IgG (from Wallac, Cat. #AD0083, Lot 318663, 710 ug/mL, 4.4 μM); (α-6H-SureLight-APC (from Martek, Cat. #AD0059H, Lot E012AB01, 3.03 μM). • Reader: Envision from PerkinElmer, HTRF reading mode with 412 mirror • Assay Plate: Matrix all-black polypropylene plates (Cat. #4344) • Others: Weidman 384 polypropylene plates (REMP) for compound plate. Assay Procedure: • (1) Prepare Kinase Assay Buffer (KAB): 50 mM HEPES (HyClone) pH7, 10 mM MgCl2, 1 mM DTT, 0.1 mM […], and 0.3 mg/ml BSA. • (2) Prepare 6H-MEK (150 nM) in KAB. Add 12 μl/well to the assay plate. • (3) Prepare ATP (66 μM) in KAB. • (4) Dilute compounds to 2.4 mM and positive controls to 480 μM in DMSO. • Perform 10-point 3× dilution in DMSO. […]
What is called IC50 is the concentration that gives 50% inhibition. With `Cn1nc(COc2cccc(OCc3ccccc3)c2)c2c(N)ncnc21` [Example 7, 3-(3-Benzyloxy-phenoxymethyl)-1-methyl-1H-pyrazolo[3,4-d]pyrimidin-4-ylamine], the IC50 is more than 10 µM.

`Cc1ccc(NC(=O)c2ccc(NCCO)c(Cl)c2)cc1OCc1nn(C)c2ncnc(N)c12` [Example 9, N-[3-(4-Amino-1-methyl-1H-pyrazolo[3,4-d]pyrimidin-3-ylmethoxy)-4-methyl-phenyl]-3-chloro-4-(2-hydroxy-ethylamino)-benzamide]: the IC50 was less than 10 µM.

For the compound `Cc1ccc(NC(=O)c2cccc(Cl)c2)cc1OCc1nn(C)c2ncnc(N)c12` [Example 11, N-[3-(4-Amino-1-methyl-1H-pyrazolo[3,4-d]pyrimidin-3-ylmethoxy)-4-methyl-phenyl]-3-chloro-benzamide], the IC50 was less than 10 µM.

Regarding `Cc1noc(-c2ccc(C)c(OCc3nn(C)c4ncnc(N)c34)c2)n1` [Example 13, 4-Amino-1-1-methyl-3-[2-methyl-5-(3-methyl-[1,2,4]oxadiazol-5-yl)-phenoxymethyl]-1H-pyrazolo[3,4-d]pyrimidine], the IC50 was more than 10 µM.

Turning to `Cc1ccc(OCc2ccccc2)cc1OCc1nn(C)c2ncnc(N)c12` [Example 15, 3-(5-Benzyloxy-2-methyl-phenoxymethyl)-1-methyl-1H-pyrazolo[3,4-d]pyrimidin-4-ylamine], the IC50 is less than 10 µM.

On to `Cc1ccc(C(=O)Nc2ccc(Cl)cc2)cc1OCc1nn(C)c2ncnc(N)c12` [Example 17, 3-(4-Amino-1-methyl-1H-pyrazolo[3,4-d]pyrimidin-3-ylmethoxy)-N-(4-chloro-phenyl)-4-methyl-benzamide], for which the IC50 is less than 10 µM.

Turning to `Cc1ccc(OCc2ccc(Cl)cc2)cc1OCc1nn(C)c2ncnc(N)c12` [Example 19, 3-[5-(4-Chloro-benzyloxy)-2-methyl-phenoxymethyl]-1-methyl-1H-pyrazolo[3,4-d]pyrimidin-4-ylamine], the IC50 was less than 10 µM.

Take `Cc1nnc(-c2ccc(C)c(OCc3nn(C)c4ncnc(N)c34)c2)o1` [Example 21, 1-Methyl-3-[2-methyl-5-(5-methyl-[1,3,4]oxadiazol-2-yl)-phenoxymethyl]-1H-pyrazolo[3,4-d]pyrimidin-4-ylamine]: the IC50 was more than 10 µM.
